The values that follow come from patent US10392385B2, “N-((1-phenyl-9H-pyrido[3,4-b]indol-3-yl)methyl)cinnamamides as potential anticancer agents and preparation thereof” (Council of Scientific & Industrial Research, priority 2016, dated 2019).

Data set [1] has as its system HeLa. Particulars: cervical cancer; 48 h of drug treatment; average of three experiments; cited from earlier work.
In data set [2] the test system is A549. The following applies: lung cancer; 48 h of drug treatment; average of three experiments; cited from earlier work.
In data set [3] the test system is MCF-7. Particulars: breast cancer; 48 h of drug treatment; average of three experiments; cited from earlier work.
Data set [4] relates to HeLa (cervical cancer). In words: MTT cytotoxicity assay, HeLa. In kind it is cell-based. The following applies: Homo sapiens, of drug treatment (footnote), average of three experiments. The source says:
(§1) The N-((1-phenyl-9H-pyrido[3,4-b]indol-3-yl)methyl)cinnamamides (1a-h, 2a-h and 3a-h) have been tested against five human cancer cell lines such as A549 (lung cancer), MCF-7 (breast cancer), B16 (melanoma), HeLa (cervical cancer) and NIH3T3 (mouse embryonic fibroblast cancer). All the cancer cell lines (HeLa, A549, MCF-7 and B16) were procured from National Centre for Cell Sciences (NCCS, Pune, India) and NIH 3T3 cell line was obtained from American Type Culture Collection (Rockville, Md., USA). Stock cells were cultured in DMEM supplemented with 10% Fetal Bovine Serum (FBS), in an humidified atmosphere of 5% CO2 at 37° C. until they are 80% confluent. To study the cytotoxicity of the compounds, after 80% confluence, cells were trypsinized with 0.1% trypsin-EDTA and harvested by centrifugation at 500×g. Serial dilutions of cells were made from 1×10^6 to 1×10^3 cells per mL The cells were seeded in triplicate in a 96 well plate. The cells were seeded in triplicate in a 96 well plate. […] The cell viability was determined by measuring the ability of cells to transform MTT to a purple coloured formazan dye. The absorbance of samples at 570 nm was measured using a UV-Visible spectrophotometer. Percentage of viable cells was calculated by using the formula given below.
(§2) Where the OD570 (sample) corresponds to absorbance obtained from the wells treated with compound and OD570 (control) represents the absorbance from the wells in which no compound was added. For these compounds results are expressed as half maximal inhibitory concentration (IC50) values and the anticancer activity data of 1a-h, 2a-h and 3a-h are shown in Table 2.
On the technique in general: Tetrazolium assays rely on reduction of a dye to a coloured formazan, in cell work by metabolically active cells.

Data set [5] concerns A549 (lung cancer). Nature of the data set: MTT cytotoxicity assay, A549. The class given is cell-based. Particulars: Homo sapiens, 48 h of drug treatment (footnote), average of three experiments.
Source text: as §1
(§3) Where the OD570 (sample) corresponds to absorbance obtained from the wells treated with compound and OD570 (control) represents the absorbance from the wells in which no compound was added.

In data set [6] the test system is NIH3T3 (mouse embryonic fibroblast cell line). In words: MTT cytotoxicity assay, NIH3T3. In kind it is cell-based. Particulars: 48 h of drug treatment (footnote), average of three experiments.
Source text: as §1, §2

In data set [7] the test system is MCF-7 (breast cancer). Nature of the data set: MTT cytotoxicity assay, MCF-7. The class given is cell-based. Particulars: Homo sapiens, MCF7, average of three experiments.
Source text: as §1, §2

Data set [8] relates to B16 (melanoma). Nature of the data set: MTT cytotoxicity assay, B16. The class given is cell-based. Particulars: 48 h of drug treatment (footnote), average of three experiments.
Source text: as §1, §2

Data set [9] concerns A549, MCF-7, B16, HeLa and NIH3T3 cell lines. In words: MTT cytotoxicity assay, all the cell lines tested. In kind it is cell-based. The following applies: summary over A549, MCF-7, B16, HeLa, read-out: IC50 against all the cell lines tested.
Source text: as §1, with “500×g.” for “500×g. Serial dilutions of cells were made from 1×10^6 to 1×10^3 cells per mL The cells were seeded in triplicate in a 96 well plate. The cells were seeded in triplicate in a 96 well plate.”
as §3

For the molecule `NCc1cc2c([nH]c3ccccc32)c(-c2ccc(C(F)(F)F)cc2)n1` [Compound 21e], the values for the IC50 in [1], in data set [2] and in data set [3] were 15800 nM, 15800 nM and 12000 nM, respectively.

For `COc1cc(-c2nc(CNC(=O)/C=C/c3cccc(O)c3)cc3c2[nH]c2ccccc23)cc(OC)c1OC` [Compound 2h, (E)-3-(3-hydroxyphenyl)-N-((1-(3,4,5-trimethoxyphenyl)-9H-pyrido[3,4-b]indol-3-yl)methyl)acrylamide], the melting point (usually the temperature, or range, at which the solid turns liquid) is 175 to 178 °C. Also, half-maximal inhibition in data set [4] (IC50) was put at 23.65 ± 0.1 nM. Also, the IC50 (in general, the point on the concentration scale where inhibition reaches its midpoint) in [5] is 19.5 ± 1.5 nM. The same molecule displayed an IC50 in data set [6] of 38.2 ± 1.5 nM. The molecule also yielded an IC50 in [7] of 16.8 ± 0.5 nM. Also, in [8], it took 21.8 ± 0.8 nM to reach half-maximal inhibition (IC50).

For `O=C(/C=C/c1ccc(Cl)cc1)NCc1cc2c([nH]c3ccccc32)c(-c2cccc(F)c2)n1` [Compound 1f, (E)-3-(4-chlorophenyl)-N-((1-(3-fluorophenyl)-9H-pyrido[3,4-b]indol-3-yl)methyl)acrylamide], the melting point was 248 to 250 °C. Further, in [4], the IC50 worked out at 19.2 ± 0.6 nM. Further, it took 19.6 ± 1.6 nM to reach half-maximal inhibition in [5] (IC50). The molecule also registered an IC50 in data set [6] of 43.6 ± 1.1 nM. The molecule further showed an IC50 in [7] of 18.3 ± 0.8 nM. In data set [8], this molecule registered an IC50 of 18.2 ± 1.3 nM.

For the molecule `COc1cc(/C=C/C(=O)NCc2cc3c([nH]c4ccccc43)c(-c3cccc(F)c3)n2)ccc1O` [Compound 1g, (E)-N-((1-(3-fluorophenyl)-9H-pyrido[3,4-b]indol-3-yl)methyl)-3-(4-hydroxy-3-methoxyphenyl)acrylamide], the melting point fell in the range of 205 to 210 °C. In addition, it took 23.9 ± 0.4 nM to reach half-maximal inhibition in [4] (IC50). In addition, in data set [5], half-maximal inhibition (IC50) required 22.4 ± 1.1 nM. The molecule also showed a 50% inhibitory concentration (IC50) in data set [6] of 36.9 ± 1.9 nM. In data set [7], inhibition was half-maximal at 17.9 ± 0.7 nM (IC50). The IC50 in data set [8] was 19.4 ± 1.1 nM.

Take `COc1cc(-c2nc(CN)cc3c2[nH]c2ccccc23)cc(OC)c1OC` [Compound 21b, (1-(3,4,5-trimethoxyphenyl)-9H-pyrido[3,4-b]indol-3-yl)methanamine]: the IC50 was 21700 nM in data set [1], 15100 nM in data set [2] and 18600 nM in data set [3].

In the case of `COc1cccc2c1C(=O)c1c(O)c3c(c(O)c1C2=O)C[C@@](O)(C(=O)CO)C[C@@H]3O[C@H]1C[C@H](N)[C@H](O)[C@H](C)O1` [Doxorubicin, reference compound], the IC50 in [4] was 780 ± 0.5 nM; in [6], 1720 ± 0.8 nM; in [7] it was 580 ± 0.2 nM; in [8], 670 ± 0.7 nM; in [9], > 500 nM.

For `O=C(/C=C/c1ccc(Cl)c(Cl)c1)NCc1cc2c([nH]c3ccccc32)c(-c2cccc(F)c2)n1` [Compound 1b, (E)-3-(3,4-dichlorophenyl)-N-((1-(3-fluorophenyl)-9H-pyrido[3,4-b]indol-3-yl)methyl)acrylamide], the melting point was 255 to 258 °C. In [4], it took 24.9 ± 0.4 nM to reach half-maximal inhibition (IC50). This molecule had an IC50 in data set [5] of 18 ± 0.8 nM. This molecule showed an IC50 in data set [6] of 39 ± 1.1 nM. The same molecule had an IC50 in data set [7] of 17 ± 1.2 nM. The molecule also registered an IC50 in data set [8] of 18.9 ± 0.4 nM.

The molecule `O=C(/C=C/c1ccc(F)cc1)NCc1cc2c([nH]c3ccccc32)c(-c2cccc(F)c2)n1` [Compound 1c, (E)-3-(4-fluorophenyl)-N-((1-(3-fluorophenyl)-9H-pyrido[3,4-b]indol-3-yl)methyl)acrylamide] had a melting point of 258 to 264 °C. The molecule further gave an IC50 in data set [4] of 24.3 ± 0.6 nM. Moreover, the IC50 in data set [5] amounted to 16.3 ± 0.3 nM. This molecule also returned an IC50 in data set [6] of 30.8 ± 2.1 nM. This molecule registered an IC50 in data set [7] of 16.5 ± 1.8 nM. Besides, in [8], the IC50 amounted to 16.8 ± 0.8 nM.

In the case of `COc1cc(/C=C/C(=O)NCc2cc3c([nH]c4ccccc43)c(-c3cccc(F)c3)n2)cc(OC)c1OC` [Compound 1a, (E)-N-((1-(3-fluorophenyl)-9H-pyrido[3,4-b]indol-3-yl)methyl)-3-(3,4,5-trimethoxyphenyl)acrylamide], the melting point lay within 148 to 150 °C. This molecule yielded an IC50 in data set [4] of 23 ± 0.7 nM. Further, in data set [5], 17.9 ± 0.6 nM corresponded to half-maximal inhibition (IC50). In data set [6], this molecule yielded an IC50 of 36 ± 1.3 nM. Moreover, half-maximal inhibition in data set [7] (IC50) required 16.2 ± 1.5 nM. In addition, 19.8 ± 0.6 nM corresponded to half-maximal inhibition in [8] (IC50).

As for `O=C(/C=C/c1cccc(O)c1)NCc1cc2c([nH]c3ccccc32)c(-c2cccc(F)c2)n1` [Compound 1h, (E)-N-((1-(3-fluorophenyl)-9H-pyrido[3,4-b]indol-3-yl)methyl)-3-(3-hydroxyphenyl)acrylamide], the melting point lay in the range of 142 to 148 °C. This molecule returned an IC50 in [4] of 27 ± 0.5 nM. This molecule displayed an IC50 in [5] of 23.4 ± 0.8 nM. In data set [6], the IC50 is 35.7 ± 2.2 nM. The IC50 in data set [7] came to 19.2 ± 0.6 nM. The molecule further registered an IC50 in data set [8] of 24.9 ± 0.5 nM.

Regarding `COc1ccc(-c2nc(CNC(=O)/C=C/c3ccc(F)cc3)cc3c2[nH]c2ccccc23)cc1` [Compound 3c, (E)-3-(4-fluorophenyl)-N-((1-(4-methoxyphenyl)-9H-pyrido[3,4-b]indol-3-yl)methyl)acrylamide], the melting point was in the range of 145 to 148 °C. Moreover, the IC50 in [4] turned out to be 22.8 ± 0.6 nM. Further, in data set [5], the IC50 was 20.2 ± 1.3 nM. Besides, in data set [6], 36.9 ± 1.6 nM corresponded to half-maximal inhibition (IC50). Also, the midpoint of inhibition in data set [7], the IC50, lay at 18.2 ± 0.7 nM. Moreover, the IC50 in data set [8] came to 21.9 ± 0.3 nM.

`COc1ccc(-c2nc(CNC(=O)/C=C/c3cc(OC)ccc3OC)cc3c2[nH]c2ccccc23)cc1` [Compound 3e, (E)-3-(2,5-dimethoxyphenyl)-N-((1-(4-methoxyphenyl)-9H-pyrido[3,4-b]indol-3-yl)methyl)acrylamide]: the melting point was in the range of 130 to 135 °C. This molecule yielded an IC50 in [4] of 25.4 ± 0.3 nM. In data set [5], 18.9 ± 1.2 nM corresponded to half-maximal inhibition (IC50). This molecule also gave an IC50 in data set [6] of 34.4 ± 1.6 nM. In addition, inhibition in [7] was half-maximal at 16.5 ± 0.7 nM (IC50). Also, inhibition in [8] was half-maximal at 22.1 ± 0.4 nM (IC50).

For `COc1cc(/C=C/C(=O)NCc2cc3c([nH]c4ccccc43)c(-c3cc(OC)c(OC)c(OC)c3)n2)ccc1O` [Compound 2g, (E)-3-(4-hydroxy-3-methoxyphenyl)-N-((1-(3,4,5-trimethoxyphenyl)-9H-pyrido[3,4-b]indol-3-yl)methyl)acrylamide], the melting point is 175 to 178 °C. The molecule further gave an IC50 in data set [4] of 26 ± 0.3 nM. The molecule also gave an IC50 in [5] of 18.3 ± 1.4 nM. In addition, half-maximal inhibition in data set [6] (IC50) required 43.1 ± 1.3 nM. The molecule also yielded an IC50 in data set [7] of 17.6 ± 0.7 nM. Further, the IC50 in data set [8] worked out at 19 ± 0.9 nM.

As to `COc1ccc(-c2nc(CN)cc3c2[nH]c2ccccc23)cc1` [Compound 21c, (1-(4-methoxyphenyl)-9H-pyrido[3,4-b]indol-3-yl)methanamine], the IC50 in data set [1] was 18600 nM; in data set [2], 17800 nM; in [3], 18900 nM.
